Measurements published in patent US10835500B2, “Medicament for accelerated wound healing” (Symrise AG, priority 2014, dated 2020).

Experiments:
[1] = molecular target: T1, recombinantly expressed OR2AT4 (Homo sapiens, UniProt A6NND4); test: CRE dual luciferase assay in OR2AT4-transfected Hana3A cells; format: cell-based; conditions: for activation of the recombinant receptor in the CRE luciferase assay: 4-hour incubation, OR2AT4 expressed in Hana3A cells; for concentration required to produce a significant effect at the receptor: CRE luciferase assay
T1 construct: expressed in transfected cells; host or cells: Hana3A cells, transient transfection with pcDNA3-OR2AT4 by the calcium phosphate method
T1 sequence (A6NND4 1-320): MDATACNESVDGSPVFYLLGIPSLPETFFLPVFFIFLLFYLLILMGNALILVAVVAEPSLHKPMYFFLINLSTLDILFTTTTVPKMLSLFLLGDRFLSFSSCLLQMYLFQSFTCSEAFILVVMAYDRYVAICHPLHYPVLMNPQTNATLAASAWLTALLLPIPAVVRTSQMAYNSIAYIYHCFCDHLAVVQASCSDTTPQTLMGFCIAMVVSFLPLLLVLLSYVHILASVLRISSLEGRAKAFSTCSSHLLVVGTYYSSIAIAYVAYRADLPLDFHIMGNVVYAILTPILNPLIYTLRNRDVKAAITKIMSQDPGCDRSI
Source text: In order to verify calcium imaging results and investigate dose-dependent activation of OR2AT4, a further method of deorphanization based on a dual luciferase system was used. In this method, in addition to the OR, two luciferases were introduced into the Hana3A cells. When the expressed OR is activated by an odorant and cAMP is formed in the further course of the signal cascade, this initiates expression of firefly luciferase via CRE (cAMP response elements). The second luciferase, Renilla luciferase, serves as a control for transfection and vitality of the cells. By calculating the two luciferase values, the activation capacity of an OR by an odorant can be determined. In the CRE luciferase assay, the odorant remains on the cells for hours in order to ensure that the luciferase is expressed. Because of the longer incubation time of the odorants and the possibility of activating more receptors in a 96-well format, this method is more sensitive than calcium imaging and is well-suited for establishing dose-response relationships.
For Brahmanol, however, a higher concentration (≥75 μM) was required than for Sandalore® (≥25 μM) in order to produce a significant effect at the receptor (FIG. 3c).
(§1) Determination of receptive field of recombinantly expressed OR2AT4. […] As a control, untransfected Hana3A cells were simulated with Sandalore®. 100 μM of ATP was used at the end of each measurement as a positive control stimulus. […] The mean response rate including standard error of the cells is shown relative to the Ringer control. […] Isobornyl.: isobornyl cyclohexanol; S. öl: sandalwood oil. Kruskal-Wallis test with multiple comparison. *: p<0.05. […] Significance was determined between Hana3A cells transfected with OR2AT4-pcDNA3 and pcDNA3 without an insert. The dots show mean normalized luciferase-activity including standard error. Mann-Whitney U test; n=3 experiments. *: p<0.05; **: p<0.01; ***: p<0.001.

[2] = tested on: primary keratinocytes; test: In vitro wound scratch assay, primary keratinocytes; format: cell-based, human; conditions: 500 μM, observed for two days
Source text: The MAP kinases p38 and ERK1/2 are often associated with increased proliferation and migration in epidermal wound healing. For this reason, in a further physiological experiment, the effect of Sandalore® on “wound healing” of a confluent cell layer of HaCaT cells or primary keratinocytes was investigated. For this purpose, the wound scratch assay was used, which is an established in vitro method for initial investigations of wound healing processes in keratinocytes.
Effect of Sandalore® stimulation on human keratinocytes in an in vitro “wound healing” assay. Investigation of the “wound healing rate” of A) primary keratinocytes and B) HaCaT cells by means of a wound scratch assay in the presence of Sandalore® (500 μM) or 0.1% DMSO as a control. Left: Transmitted light images of the “wound” observed at various times. The growth margin of the cells was surrounded in black. Scale: 200 μm. Right: Quantitative evaluation of the wound scratch assay. The areas of the wounds were measured and compared to the initial wound (0 h). Mean values including standard error. Mann-Whitney U test; n=4 experiments. *: p<0.05; ***: p<0.001. […] The measured wound areas of the treated cells (after 48-hour stimulation) were compared to the control (0.1% DMSO). […] The measured wound areas of the treated cells were compared to the control (0.1% DMSO). […]

[3] = molecular target: T1, recombinantly expressed OR2AT4; test: Calcium imaging of transiently OR2AT4-transfected Hana3A cells; format: cell-based; conditions: for response rate of the Hana3A cells relative to the Ringer control: 1 mM odorant, 20 s stimulation, OR2AT4-transfected Hana3A cells; for agonist or antagonist to heterologously expressed OR2AT4: summary of calcium imaging and luciferase results
Description: Hana3A cells expressing stable endogenous olfactory transduction factors, which specifically target the incorporation of ORs into the cell membrane and thus improve activation capacity, were used as a heterologous expression system. Moreover, the 20 first N-terminal amino acids of rhodopsins (Rho-tag) were added before the N-terminus of the coding sequence of the OR, also in order to support heterologous expression.
A method established at the Department of Cell Physiology of Ruhr University Bochum for deorphanization studies is calcium imaging, in which activation of an OR by an odorant is visualized by a change in the intracellular calcium concentration of transfected cells using a fluorescent dye [cf. Wetzel et al. in: J. Neurosci. 19, pp. 7426-7433 (1999); Spehr et al. in: Science 299, pp. 2054-2058 (2003); Neuhaus et al. in: J. Biol. Chem. 284, pp. 16218-16225 (2009)]. In this method, the Hana3A cells are briefly (20 s) stimulated with an odorant and selected for odorant screenings of high concentrations (up to 1 mM) in order to confirm activation of ORs weakly expressed in Hana3A cells.
The activation of OR2AT4 by Sandalore® was first investigated by the calcium imaging method.
Odorants can not only activate a receptor, but can also act as antagonists to an OR.
as §1
Antagonists of recombinantly expressed OR2AT4. […] 100 μM of ATP was used at the end of each measurement as a positive control stimulus. […] The mean response rate including standard error of the cells is shown relative to the Ringer control. Number of measurements: Ringer (23), Sandalore® (22), Sandalore®+dimetol (11), dimetol (11), Phenirat (14), Sandalore®+Phenirat (22), Oxyphenylon (12), and Sandalore®+Oxyphenylon (20). S: Sandalore®. Kruskal-Wallis test with multiple comparison. *: p<0.05.

Row | Compound | activation of the recombinant receptor in the CRE luciferase assay [1] | concentration required to produce a significant effect at the receptor [1] [µM] | faster closing of the scratch [2] [%] | response rate of the Hana3A cells relative to the Ringer control [3] | agonist or antagonist to heterologously expressed OR2AT4 [3] | agonist or antagonist to heterologously expressed OR2AT4 ([3]; listed as Brahmanol) | agonist or antagonist to heterologously expressed OR2AT4 ([3]; listed as Sandalore) | effect on Sandalore-induced calcium signals in coapplication ([3]; coapplication with Sandalore 1:1, 1 mM respectively) | effect of the odorant alone on the Hana3A cells ([3]; odorant alone, 1 mM)
1 | CC1=CCC(CCC(C)CO)C1(C)C (stereo not drawn) [Brahmanol®] | significant dose-dependent activation | ≥ 75 | 34 | increased response rate in calcium imaging experiments, although the increase was not significant | agonists | only agonists |  |  | 
2 | CC1=CCC(CCC(C)C(C)O)C1(C)C (stereo not drawn) [Sandalore®] | significant dose-dependent activation | ≥ 25 | 34 | significantly increased response rate | agonists |  | only agonists |  | 
3 | CC(=O)CCc1ccc(O)cc1 [Oxyphenylon] |  |  |  |  | antagonists |  |  | significantly reduced | no effect
